# Laboratory results reported in patent US20260174829A1, “METHODS OF REDUCING TYPE 2 CYTOKINE-MEDIATED INFLAMMATION USING NEUROMEDIN PEPTIDES” (Rutgers, The State University of New Jersey, priority 2018, published 2026).
# What was measured:
# [1] = test system: Nippostrongylus brasiliensis (Nb)-infected mice; test: Nmb treatment (i.t.) of Nippostrongylus brasiliensis-infected mice; assay type: in vivo, mouse
# Experimental: FIGS. 6A-6E. […] (A), Nb-infected mice were treated with PBS or Nmb (i.t.) and ILC2s in the BAL were quantified. (B) Expression of IL-5 and IL-13 in the lungs of PBS or Nmb-treated mice was determined on day 7 post-Nb by Real-time PCR. (C) Eosinophils in the BAL were quantified and (D) worm burdens were determined on day 7 post-Nb infection. ILC2s were sort-purified from the lungs of control or baso-dep mice on day 7 post-Nb and cultured (O/N) with IL-2 and IL-7 in the presence or absence of Nmb and (E) IL-5 and IL-13 levels in culture supernatants were determined by ELISA. P values were determined by two-tailed Student's t-tests.
# Methods for maintenance, recovery, infection and isolation of N. brasiliensis larvae were performed as previously described (Camberis et al., 2003, Animal model of Nippostrongylus brasiliensis and Heligmosomoides polygyrus. Current protocols in immunology/edited by John E. Coligan . . . [et al.] Chapter 19:Unit 19.12.). Mice were infected with ˜500 N. brasiliensis larvae by subcutaneous injection. For basophil depletion, WT and basophil-depleted mice were treated with 0.375 μg of diphtheria toxin i.p. every other day; mice were sacrificed 3-7 days post-N. brasiliensis infection. For neuromedin B treatment, mice were anesthetized and treated with 10 μg of neuromedin B (MP Biomedicals) dissolved in 50 μL of PBS administered via intratracheal instillation.
# For BAL collection after necropsy, 5 mL of PBS were injected and aspirated from the trachea of each mouse, after collection the volume of BAL collected was recorded. Following BAL collection, lungs were collected at necropsy and single-cell suspensions for flow cytometric analysis were prepared as previously described (Jungblut et al., J Vis Exp 29:1266, 2009). Briefly, pulmonary tissue was minced and incubated in HBSS containing 2.5% of FBS, collagenase D (2 mg/mL, Roche) and DNAse I (80 U/mL, Roche) for 30 min at 37° C. Cell suspensions were filtered through a […] filter and analyzed by flow cytometry. Additionally sections of pulmonary tissue were collected for real-time PCR and histological analysis.
# Cells were stained with monoclonal anti-mouse fluorescently conjugated antibodies: B220 (RA3-6B2), c-Kit (ACK2), CD3 (145-2C11), CD4 (GK1.5), CD5 (53-73), CD19 (1D3), NK1.1 (PK136), CD11b (MI/70), CD11c (N418), IgE (23G3), FcRI (MAR-1), CD49b (DX5), CD45 (30-F11), CD90 (5E10), CD127 (A7R34), F4/80 (BM8), γδTCR (eBioGL3), Siglec-F (E50-2440), LγδG (1A8), LγδC (AL-21), IL-5 (TRFK5), IL-13 (eBiol3A), Ter-119 (TER-119) from eBioscience or BD Biosciences. For intracellular staining, cells were incubated for 5 hours at 37° C. with Leukocyte Activation Cocktail, with BD GolgiPlug™ (BD Biosciences) following manufacturer's instructions. Basophils were analyzed as CD45^+CD3^−CD19^−FceR1^+CD49b^+. Eosinophils were analyzed as CD45^+CD11b^+Siglec-F^+CD11c^−. Neutrophils were analyzed as Live CD45^+CD11b^+LγδG^+. ILC2s were analyzed as CD45^+CD3^−CD19^−CD11b^−CD11c^−NK1.1^−B220^−CD5^−Ter-119^− γδ TCR^−CD90^+CD127^+IL-5^+IL-13^+. Samples were acquired on a BD Fortessa flow cytometer (BD Biosciences) and analyzed using Flowlo software (v10.0.5, Tree Star). Cell sorting was performed using a FACSAriaII (BD Bioscience).
# RNA from sections of lung tissue was isolated by homogenization in TRIzol (Invitrogen) followed by phenol-chloroform extraction and isopropanol precipitation. cDNA was generated per standard protocol with Superscript reverse transcriptase (Invitrogen) and used as input for real-time PCR. Real-time data were analyzed using the ΔΔCT method using SYBR Green chemistry (Applied Biosystems) with β-actin serving as the endogenous housekeeping gene. All reactions were run on an ABI 7500 Fast Real-Time PCR System (Applied Biosystems). Samples were normalized to naïve controls.
# [2] = test system: papain-induced allergic airway inflammation; test: Papain-induced allergic airway inflammation, Nmb i.t.; assay type: in vivo, mouse; conditions: papain-challenged mice, Nmb i.t. vs PBS, lung
# Experimental: FIGS. 7A-7I. Nmb treatment is sufficient to suppress allergic airway inflammation. Mice challenged with papain were treated with PBS or Nmb (i.t.) and (A) Lung ILC2s, (B) IL-5+ and IL-13+ ILC2s, and (C) eosinophils were evaluated. […] Mesenteric lymph nodes (MLNs) were isolated on day 7 post-Nb and single cells suspensions were treated with anti-CD3 and anti-CD28 in the presence or absence of Nmb for 48 hours and (E), IL-5 and (F) IL-13 were quantified in cell-free supernatants by ELISA. (F-I), Modified versions of Nmb (see Table 2) were tested for their ability to alter IL-5 and IL-13 production from anti-CD3 and anti-CD28 MLN cells isolated on day 7 post-Nb. P values were determined by two-tailed Student's t-tests. Blue asterisks represent comparisons between media treated controls and native Nmb. Red asterisks represent comparisons between media treated controls and modified version of Nmb as described in Table 2. (*,p<0.05), (**,p<0.01), (***,p<0.001) or (F-I).
# A well-established model of papain-induced allergic airway inflammation known to be dependent on ILC2s was utilized (19, 20). Mice treated with papain presented with elevated percentages of ILC2s (FIG. 7A), elevated expression of IL-5 and IL-13 by ILC2s (FIG. 7B) and lung eosinophilia (FIG. 7C). […] Thus, Nmb negatively regulate ILC2 responses both in vivo and in vitro.
# [3] = Nmb i.t. vs PBS, day 7, Real-time PCR
# [4] = Nmb i.t. vs PBS, day 7 post-infection
substance,measurement,setting,value
H2N-GNLWATGHFM-amide [Nmb],IL-5 expression in the lungs,[1]; [3],reduced
same,IL-13 expression in the lungs,[1]; [3],reduced
same,ILC2 responses (ILC2s in the BAL),[1]; [4],reduced
same,eosinophilia (eosinophils in the BAL),[1]; [4],reduced
same,infection-induced neutrophilia,[1]; [4],no effect
same,worm clearance (worm burdens),"[1]; Nmb i.t. vs control mice, day 7 post-infection",failed to clear worms as efficiently as control mice
same,papain-induced ILC2 responses,[2],sufficient to reduce
same,papain-induced eosinophilia,[2],sufficient to reduce
